# Test results published in patent publication US20180118699A1, “SK AND IK CHANNEL AGONISTS FOR TREATMENT OF HEART FAILURE” (THE TRUSTEES OF COLUMBIA UNIVERSITY IN THE CITY OF NEW YORK, priority 2015, published 2018).
# Where two headings read alike, the source gives them in different places.
# Columns and labels:
# [1] = IV bolus in mouse with systolic heart failure, left ventricular pressure-volume recording; assay type: in vivo; details: IV bolus 3 mg/kg, wildtype mouse with heart failure (FAC 38%)
# Protocol: (§1) FIG. 22 depicts data of a wildtype mouse with heart failure (FAC 38%) given an IV bolus of SKA-31 (3 mg/kg) through the left internal jugular vein during simultaneous recording of left ventricular pressure and volume using a Milar conductance catheter inserted through the right carotid artery.
# as §1, with “In this experiment,” for “FIG. 22 depicts data of”, “38%) was” for “38%)”, “artery. (FIG. 22)” for “artery.”
# BK channel deficient mice and wildtype littermates developed an ischemic cardiomyopathy after surgical ligation of the left anterior descending coronary artery. Systolic heart failure was confirmed six weeks later by noting a fractional area of change (FAC) of 40% or lower on 2D echocardiography (Visualsonics Vevo 2100). […] Continuous LV pressure and volume measurements were recorded (MPVS Ultra by Milar with PowerLab 4/35 and LabChart by ADInstruments). After stable baseline LV measurements were recorded, vehicle (Cremophor EL made by Calbiochem) was infused intravenously into the cannulated internal jugular vein as a single bolus in the same volume later used to deliver an intravenous bolus of SKA-31 (Tocris) at 3 mg/kg. […]
# [2] = test system: SK channels; details: cited from earlier work
# [3] = rats; cited from earlier work
# [4] = mice; cited from earlier work
# [5] = cited from earlier work
# [6] = cited from earlier work; for lowering of mean arterial pressure: 30 mg/kg
# [7] = test system: mesenteric resistance vessels; experiment: Dilation of cannulated mesenteric resistance vessels
# Protocol: Vessels were mounted onto cannulas and equilibrated at 80 mm Hg. […] The vessels were continuously constricted with 1 μM phenylephrine. […] At the conclusion of the experiment, the vessels were superfused in a Ca^2+-free solution to determine maximal dilation. Data shown are mean+s.e.m., relative to maximal dilation determined in Ca^2+-free solution. N=4.
# [8] = biological target: T1, human KCNN3 (SK3) (Homo sapiens, UniProt P0DP23+Q9UGI6); experiment: Whole-cell patch clamp of KCa potassium channel activator activity in transfected HEK293 cells; assay type: cell-based; details: HEK293 SK3 whole-cell currents
# T1 construct: GFP; expressed in transfected cells; host or cells: HEK293
# Excerpt: Currents were activated by 200 msec depolarizing ramps between −120 mV and +30 mV, from a holding potential of −90 mV, and then deactivated by repolarization to the holding potential. […] Colored bars indicate application of the XX-03-64 and XX-03-56 agonists.
# Currents were activated by 200 msec depolarizing ramps between −120 mV and +30 mV, from a holding potential of −90 mV, and then deactivated by repolarization to the holding potential. Voltage ramps were applied every 5 seconds. The bath solution was 140 mM NaCl, 4 mM KCl, 0.1 mM CaCl2, 3 mM Mg Cl2, 10 mM HEPES (pH 7.4) and the pipette solution was 150 mM KCl, 5 mM TES (pH 7.2), 2 mM HEDTA, and 1 μM free Ca^2+. The free Ca^2+ concentration was calculated using the Max Chelator program and confirmed using a Ca^2+ electrode (Orion). Agonists were superfused in the bath solution.
# [9] = biological target: T2, BK channels (Mus musculus, UniProt Q08460); experiment: Myogenic tone of pressurized mesenteric arteries with BK channel blocker; set-up: species or system mice; details: for increase of constriction: 120 mm Hg
# T2 construct: from tissue; host or cells: third-order mesenteric resistance arteries of mice (sham and heart failure)
# Protocol: FIG. 11A is a graph showing the effect of paxilline on myogenic tone measured at 120 mm Hg. Constriction induced by paxilline was calculated as the difference between myogenic tone (%) pre- and post-paxilline. Mean+s.e.m. No heart failure (no HF): N=6 vessels; heart failure (HF): N=5 vessels. ** P<0.01, Student's t test. FIG. 11B is a graph showing that myogenic tone is equivalent in paxilline-treated vessels from control mice and mice with heart failure. Mean+s.e.m. No HF: N=6 vessels; HF: N=5 vessels.
# If HF alters myogenic tone by reducing BK channel expression and currents, then the effect of paxilline should be reduced. […] Inhibiting BK channels with paxilline in sham-treated (no HF) control mice caused an increase in myogenic tone, approximating the increased myogenic tone of vessels isolated from HF mice (see FIG. 11B).
# [10] = test system: SK3 and IK1 channels; experiment: Electrophysiology of freshly isolated mesenteric endothelial cells; assay type: cell-based, mice
# Excerpt: FIGS. 18A-18D collectively are graphs showing electrophysiological characterization of SK channels in freshly isolated mesenteric endothelial cells.
# Endothelial cells were isolated from third-order mesenteric arteries of mice using enzymatic digestion followed by labeling the endothelial cells with CD34 antibody-labeled magnetic beads, collecting them using a magnet and then releasing them from the beads by competition. To measure both SK3 and IK1 currents, the cells were dialyzed with KCl-solution containing 3 μM free Ca^2+ and currents elicited using voltage ramps and by the activator NS-309 (see FIGS. 18A-18B).
# [11] = cited from earlier work; remark: listed apart in the source
# [12] = biological target: T2, BK channels; experiment: Whole cell K+ currents in freshly isolated mesenteric VSM cells; assay type: cell-based, mice; details: control VSM cells, 2 μM Ang II
# Protocol: Whole cell K^+ currents at baseline (black trace) and after exposure to 1 μM paxilline (red trace in FIG. 14A) or 2 μM Ang II (blue trace in FIG. 14B). The intrapipette solution contained 9 μM Ca^2+.
# Conversely, Ang II (2 μM) or phenylephrine (10 μM) may differentially modulate channel function in VSM cells isolated from HF mice. Ang II inhibits BK channel function through its effects on PKC, c-Src and Nox (Lu et al. 2010). Ang II causes less inhibition if BK channels are already modified by PKC, c-Src or Nox pathways, as compared to the effect on BK channels from control VSM cells, in which Ang II suppressed BK current by 50% (see FIG. 14B).
# Two determinants of BK activity are used: STOCs and whole-cell current density. BK currents are a very large fraction of the total K^+ currents in freshly isolated mesenteric VSM cells (see FIG. 14A). […] PKCα and PKCδ may be the relevant PKC isoforms, which are further delineated using specific inhibitors.
# [13] = two hours after IP injection of 100 μg (5 μg/g); cited from earlier work
# [14] = mesenteric arteries from HF mice
# [15] = mesenteric arteries from mice without HF
# T2 sequence (Q08460 whole entry): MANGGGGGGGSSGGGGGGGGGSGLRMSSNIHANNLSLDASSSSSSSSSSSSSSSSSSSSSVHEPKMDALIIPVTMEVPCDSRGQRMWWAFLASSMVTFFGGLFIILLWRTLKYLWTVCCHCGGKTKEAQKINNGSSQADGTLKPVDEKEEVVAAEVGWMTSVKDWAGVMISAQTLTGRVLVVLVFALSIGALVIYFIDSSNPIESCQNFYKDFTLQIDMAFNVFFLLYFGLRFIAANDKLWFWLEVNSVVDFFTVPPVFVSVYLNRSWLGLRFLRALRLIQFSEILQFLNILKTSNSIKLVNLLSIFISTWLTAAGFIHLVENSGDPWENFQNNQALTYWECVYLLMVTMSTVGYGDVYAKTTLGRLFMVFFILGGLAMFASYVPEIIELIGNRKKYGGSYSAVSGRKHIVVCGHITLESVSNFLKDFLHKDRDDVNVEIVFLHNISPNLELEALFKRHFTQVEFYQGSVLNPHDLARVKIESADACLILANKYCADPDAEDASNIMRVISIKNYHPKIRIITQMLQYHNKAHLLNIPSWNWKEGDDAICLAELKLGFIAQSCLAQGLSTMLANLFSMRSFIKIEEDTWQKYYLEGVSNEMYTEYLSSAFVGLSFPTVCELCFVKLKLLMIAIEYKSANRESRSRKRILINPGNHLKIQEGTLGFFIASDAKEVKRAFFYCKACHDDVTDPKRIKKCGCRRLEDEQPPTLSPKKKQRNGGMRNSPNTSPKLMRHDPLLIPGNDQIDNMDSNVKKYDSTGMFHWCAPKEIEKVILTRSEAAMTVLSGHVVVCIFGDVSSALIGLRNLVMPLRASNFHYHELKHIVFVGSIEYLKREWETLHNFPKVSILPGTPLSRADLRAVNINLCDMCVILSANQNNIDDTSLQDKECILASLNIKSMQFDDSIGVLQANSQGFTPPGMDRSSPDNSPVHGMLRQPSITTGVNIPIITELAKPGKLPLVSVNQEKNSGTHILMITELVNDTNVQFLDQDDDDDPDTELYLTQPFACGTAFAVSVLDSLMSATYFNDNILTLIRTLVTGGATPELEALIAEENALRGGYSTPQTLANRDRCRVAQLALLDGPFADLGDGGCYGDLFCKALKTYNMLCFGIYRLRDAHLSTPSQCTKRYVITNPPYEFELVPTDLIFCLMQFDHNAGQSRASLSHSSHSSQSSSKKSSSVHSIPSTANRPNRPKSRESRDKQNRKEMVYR
# T2 sequence (Q8CAE3 whole entry partner): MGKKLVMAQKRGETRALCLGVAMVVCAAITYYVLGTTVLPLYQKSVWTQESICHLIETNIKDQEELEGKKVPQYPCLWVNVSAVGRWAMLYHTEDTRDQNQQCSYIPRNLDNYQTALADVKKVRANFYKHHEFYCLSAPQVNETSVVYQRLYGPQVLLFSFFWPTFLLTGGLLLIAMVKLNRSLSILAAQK
molecule,measurement,setting,value
"Nc1nc2c(ccc3ccccc32)s1 [XX-03-58, naphtha[1,2-d]thiazol-2-ylamine]",cardiac work,[1],improves cardiac work
same,EC50 of SK channel activation,[2],low μM range
same,acute toxicity,[3],no acute toxicity
same,acute toxicity,[4],no acute toxicity
same,free plasma level,"[5]; 10 mg/kg IP, 24 h",300 nM
same,plasma concentration,"[5]; 10 mg/kg IP, mice, 2 h",5.5 µM
same,plasma concentration,"[5]; 10 mg/kg IP, mice, 4 h",1.4 µM
same,plasma concentration,"[5]; 10 mg/kg IP, mice, 24 h",0.5 µM
same,free in plasma,[5]; mice,61%
same,plasma protein-bound,[5]; mice,39%
same,lowering of mean arterial pressure,[6]; mice with hypertension,12 mm Hg
same,lowering of mean arterial pressure,[6]; normal mice,6 mm Hg
same,lowering of blood pressure,"[6]; single IP injection 10 mg/kg, at 24 h",4 mm Hg
same,dilation of vessels,"[7]; intraluminal 250 nM or 1 μM, vessels of control mice and mice with HF",effectively dilated the vessels
same,dilation of vessels,[7]; phenylephrine-constricted vessels of BK β1 null mice,caused dilatation of vessels from β1 null mice to a similar extent as vessels from WT mice
Cc1ccc2ccc3sc(N)nc3c2c1 [XX-03-64],Note: rank of activity,[8],least active
CC(C)(O)[C@H]1O[C@H]2CC[C@@]3(C)[C@@](O)(CC[C@H]4Cc5c([nH]c6ccccc56)[C@@]43C)C2=CC1=O [paxilline],relative increase in myogenic tone,[9]; [14],3%
same,increase of constriction,[9]; [14],0.9%
same,relative increase in myogenic tone,[9]; [15],51.9%
same,increase of constriction,[9]; [15],10.9%
NS-309,activation of SK/IK channels,[10]; 5 μM NS-309,reversible NS-309 (5 μM) activation of SK/IK channels
same,endothelial cell membrane potential,[10]; NS309,caused hyperpolarization of the endothelial cell membrane potential
same,half-life,[11],extremely short half-life
C[N+](C)(C)CCOC(N)=O [carbachol],endothelial cell membrane potential,[10]; carbachol 2 μM,hyperpolarization of endothelial cell membrane potential
COc1ccc2c(ccc3sc(N)nc32)c1 [XX-03-52],Note: rank of activity,[8],2nd most active
"angiotensin II (DRVYIHPF; Angiotensin-2; UniProt P01019 25-32, looked up) [Ang II, circulating angiotensin II]",suppression of BK current,[12],50%
"CC(=O)c1c(O)c(C)c(O)c(Cc2c(O)c3c(c(C(=O)/C=C/c4ccccc4)c2O)OC(C)(C)C=C3)c1O [rottlerin, Rottlerin]",plasma level,[13],2.9 µg/mL
Clc1ccccc1C(c1ccccc1)(c1ccccc1)n1cccn1 [TRAM-34],effect on SKA-31 (1 μM)-mediated vasodilation,"[7]; intraluminal 1 μM TRAM-34 and 100 nM apamin together, phenylephrine-constricted vessels",prevented
Nc1nc2c(ccc3cc(Cl)ccc32)s1 [XX-03-56],Note: rank of activity,[8],Most active
